Results from ChEMBL document CHEMBL1201862, “PubChem BioAssay data set” (2004).
The source made the active and inactive calls.

Legend:
[1] = Luminescence Cell-Based Dose Response HTS to Identify Activators of Luciferase Translation or Activity in H4 […] Cells. [Related pubchem assays: 1829 (Project Summary), 1814 (Primary HTS)]; type: functional
[2] = target: T1, Orexin/Hypocretin receptor type 1 (Homo sapiens, UniProt O43613); assay: (§1) Fluorescence-based cell-based high throughput dose response assay for antagonists of the orexin 1 receptor (OX1R; HCRTR1). [Related pubchem assays (depositor defined):AID434989, AID435008, AID463079, AID485270, AID492963, AID492964, AID492965, AID493232, AID504717, AID504718]; type: functional
T1 sequence (O43613 whole entry): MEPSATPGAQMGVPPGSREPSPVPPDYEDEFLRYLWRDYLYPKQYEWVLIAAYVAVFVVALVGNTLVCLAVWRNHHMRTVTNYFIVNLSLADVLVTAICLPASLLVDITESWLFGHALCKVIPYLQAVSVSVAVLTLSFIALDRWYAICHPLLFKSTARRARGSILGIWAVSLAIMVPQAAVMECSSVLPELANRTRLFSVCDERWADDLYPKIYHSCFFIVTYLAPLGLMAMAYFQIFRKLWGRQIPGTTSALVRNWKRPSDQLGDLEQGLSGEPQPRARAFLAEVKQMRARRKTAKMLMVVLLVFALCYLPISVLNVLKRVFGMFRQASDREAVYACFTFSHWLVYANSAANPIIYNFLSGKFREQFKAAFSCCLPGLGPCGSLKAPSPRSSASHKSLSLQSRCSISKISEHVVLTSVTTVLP

[3] = target: T1, Orexin/Hypocretin receptor type 1; assay: as §1, with “Homogeneous Time Resolved Fluorescence (HTRF)-based” for “Fluorescence-based”; type: functional
[4] = Luminescence Cell-Based Dose Confirmation HTS to Identify Activators of 5'UTR Stem-Loop Driven Alpha-Synuclein mRNA Translation in H4 Neuroglioblastoma Cells. [Related pubchem assays: 1829 (Project Summary), 1814 (Primary HTS)]; type: functional
Orexin receptor type 2 [5] = target: T2, Orexin receptor type 2 (Homo sapiens, UniProt O43614); assay: Counterscreen assay for antagonists of the orexin 1 receptor (OX1R; HCRTR1): Fluorescence-based cell-based dose response assay for antagonists of the orexin 2 receptor (OX2R; HCRTR2), run by assay provider.; type: functional
T2 sequence (O43614 whole entry): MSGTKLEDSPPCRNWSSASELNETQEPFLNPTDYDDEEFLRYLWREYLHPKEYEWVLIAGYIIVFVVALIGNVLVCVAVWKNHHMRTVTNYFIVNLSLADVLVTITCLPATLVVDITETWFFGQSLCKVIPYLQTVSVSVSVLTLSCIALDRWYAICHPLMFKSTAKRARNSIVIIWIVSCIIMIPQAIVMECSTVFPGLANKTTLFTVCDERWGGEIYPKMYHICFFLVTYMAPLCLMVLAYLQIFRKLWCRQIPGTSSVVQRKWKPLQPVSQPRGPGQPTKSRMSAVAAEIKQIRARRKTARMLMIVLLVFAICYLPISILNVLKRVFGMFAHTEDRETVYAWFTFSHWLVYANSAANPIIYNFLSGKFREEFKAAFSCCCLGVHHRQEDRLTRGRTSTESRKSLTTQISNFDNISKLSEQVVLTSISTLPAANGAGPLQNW

Orexin receptor type 2 [6] = target: T2, Orexin receptor type 2; assay: Counterscreen assay for antagonists of the orexin 1 receptor (OX1R; HCRTR1): Homogeneous Time Resolved Fluorescence (HTRF)-based cell-based dose response assay for antagonists of the orexin 2 receptor (OX2R; HCRTR2), run by assay provider.; type: functional
H4 = assay: Luminescence Cell-Based Dose Response HTS to Identify Activators of 5'UTR Stem-Loop Driven Prion Protein mRNA Translation in H4 Neuroglioblastoma Cells. [Related pubchem assays: 1829 (Project Summary), 1814 (Primary HTS)]; type: functional; conditions: Homo sapiens
[7] = (§2) Counterscreen for antagonists of the orexin 1 receptor (OX1R; HCRTR1): Fluorescence-based cell-based high throughput dose response assay to identify antagonists of the parental CHO cell line. [Related pubchem assays (depositor defined):AID434989, AID435008, AID463079, AID485270, AID492963, AID492964, AID492965, AID493232, AID504699, AID504701]; type: functional
CHO-K1 = assay: as §2, with “Homogeneous time resolved fluorescence (HTRF)-based” for “Fluorescence-based”, “cell-based” for “cell-based high throughput”, “CHO-K1” for “CHO”; type: functional; conditions: Cricetulus griseus;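 also: potency for inhibition of ATP-stimulated IP1 production as antagonists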
[8] = target: Ras and Rab interactor 1/Tyrosine-protein kinase ABL1 (Homo sapiens, UniProt P00519+Q13671); type: functional;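 also: biochemical TR-FRET dose-response test measuring inhibition of binding between Rin1 and Abl proteins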
[9] = target: T3, Sentrin-specific protease 7 (Homo sapiens, UniProt Q9BQF6); assay: inhibition of human SENP7 cleavage activity – biochemical, luminescence, set 2, SAR follow-up (AID 588600); type: functional
T3 sequence (Q9BQF6 whole entry): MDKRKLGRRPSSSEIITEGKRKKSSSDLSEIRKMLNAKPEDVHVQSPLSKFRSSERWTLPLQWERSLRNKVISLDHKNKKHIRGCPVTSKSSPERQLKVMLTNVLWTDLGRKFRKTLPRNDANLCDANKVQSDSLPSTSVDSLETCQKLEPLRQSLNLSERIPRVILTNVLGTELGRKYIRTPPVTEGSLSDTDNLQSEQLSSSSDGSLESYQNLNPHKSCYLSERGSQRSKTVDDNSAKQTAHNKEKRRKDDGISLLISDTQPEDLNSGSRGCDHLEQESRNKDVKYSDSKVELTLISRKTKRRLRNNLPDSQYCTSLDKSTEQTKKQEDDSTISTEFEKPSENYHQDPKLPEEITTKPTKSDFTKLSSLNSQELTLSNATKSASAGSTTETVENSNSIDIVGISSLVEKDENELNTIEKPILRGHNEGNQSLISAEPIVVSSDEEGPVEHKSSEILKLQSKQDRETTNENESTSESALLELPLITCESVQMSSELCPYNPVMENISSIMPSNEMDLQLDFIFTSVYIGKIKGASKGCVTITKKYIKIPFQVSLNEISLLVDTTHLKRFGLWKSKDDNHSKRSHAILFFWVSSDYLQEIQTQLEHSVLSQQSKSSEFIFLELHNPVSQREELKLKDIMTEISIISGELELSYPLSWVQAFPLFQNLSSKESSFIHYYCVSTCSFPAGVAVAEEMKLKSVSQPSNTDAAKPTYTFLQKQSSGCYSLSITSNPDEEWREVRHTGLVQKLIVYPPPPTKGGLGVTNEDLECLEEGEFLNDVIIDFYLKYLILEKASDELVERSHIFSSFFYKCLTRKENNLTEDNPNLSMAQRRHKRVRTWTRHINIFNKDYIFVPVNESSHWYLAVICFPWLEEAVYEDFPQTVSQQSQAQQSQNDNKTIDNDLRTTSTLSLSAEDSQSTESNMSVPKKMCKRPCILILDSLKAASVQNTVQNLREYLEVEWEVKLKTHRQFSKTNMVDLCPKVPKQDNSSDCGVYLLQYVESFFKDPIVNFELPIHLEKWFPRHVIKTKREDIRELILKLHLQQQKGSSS

[10] = target: T4, Sentrin-specific protease 6 (Homo sapiens, UniProt Q9GZR1); assay: inhibition of human SENP6 catalytic domain – biochemical, luminescence, set 2, SAR follow-up (AID 588598); type: functional
T4 sequence (Q9GZR1 whole entry): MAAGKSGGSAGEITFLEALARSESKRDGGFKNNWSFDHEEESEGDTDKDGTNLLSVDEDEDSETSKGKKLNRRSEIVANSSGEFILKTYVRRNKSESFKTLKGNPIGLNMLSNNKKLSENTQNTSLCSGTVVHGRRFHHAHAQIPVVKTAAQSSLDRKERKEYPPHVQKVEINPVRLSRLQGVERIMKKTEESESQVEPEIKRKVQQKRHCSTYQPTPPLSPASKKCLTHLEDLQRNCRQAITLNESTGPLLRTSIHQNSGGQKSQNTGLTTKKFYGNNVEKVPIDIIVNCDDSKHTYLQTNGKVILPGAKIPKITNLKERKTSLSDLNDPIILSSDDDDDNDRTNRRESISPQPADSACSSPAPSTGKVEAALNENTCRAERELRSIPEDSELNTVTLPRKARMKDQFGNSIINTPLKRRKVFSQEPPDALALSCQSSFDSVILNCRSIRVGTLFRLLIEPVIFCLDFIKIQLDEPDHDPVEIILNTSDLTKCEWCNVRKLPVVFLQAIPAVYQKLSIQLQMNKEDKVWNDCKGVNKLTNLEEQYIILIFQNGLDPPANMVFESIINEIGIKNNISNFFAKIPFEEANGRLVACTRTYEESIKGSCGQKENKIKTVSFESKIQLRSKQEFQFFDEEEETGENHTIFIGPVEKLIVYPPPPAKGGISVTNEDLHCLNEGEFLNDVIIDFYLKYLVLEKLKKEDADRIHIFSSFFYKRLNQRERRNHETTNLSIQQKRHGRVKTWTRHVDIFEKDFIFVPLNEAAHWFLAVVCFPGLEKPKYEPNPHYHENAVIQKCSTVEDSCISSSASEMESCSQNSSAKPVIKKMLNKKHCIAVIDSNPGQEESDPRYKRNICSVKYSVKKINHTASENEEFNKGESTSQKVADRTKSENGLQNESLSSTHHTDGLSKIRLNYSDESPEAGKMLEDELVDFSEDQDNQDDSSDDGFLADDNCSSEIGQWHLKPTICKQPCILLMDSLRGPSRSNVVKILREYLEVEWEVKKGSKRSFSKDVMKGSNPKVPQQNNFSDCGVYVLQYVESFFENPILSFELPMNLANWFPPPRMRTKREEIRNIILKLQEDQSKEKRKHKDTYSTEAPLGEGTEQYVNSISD

[11] = target: T5, Sentrin-specific protease 8 (Homo sapiens, UniProt Q96LD8); assay: inhibition of sentrin protease 8 – biochemical, luminescence, set 2, SAR follow-up (AID 588601); type: functional
T5 sequence (Q96LD8 whole entry): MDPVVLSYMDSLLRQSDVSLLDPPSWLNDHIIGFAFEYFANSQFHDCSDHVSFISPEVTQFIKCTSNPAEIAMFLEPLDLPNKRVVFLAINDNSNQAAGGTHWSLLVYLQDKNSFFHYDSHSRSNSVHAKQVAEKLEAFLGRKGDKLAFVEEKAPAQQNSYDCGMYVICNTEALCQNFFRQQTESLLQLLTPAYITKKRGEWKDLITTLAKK

Caspase-3 = target: T6, Caspase-3 (Homo sapiens, UniProt P42574); assay: inhibition of recombinant caspase-3 activity – biochemical, luminescence, set 2, selectivity assay for SENP protease inhibitor project, SAR follow-up (AID 588599); type: functional
T6 sequence (P42574 whole entry): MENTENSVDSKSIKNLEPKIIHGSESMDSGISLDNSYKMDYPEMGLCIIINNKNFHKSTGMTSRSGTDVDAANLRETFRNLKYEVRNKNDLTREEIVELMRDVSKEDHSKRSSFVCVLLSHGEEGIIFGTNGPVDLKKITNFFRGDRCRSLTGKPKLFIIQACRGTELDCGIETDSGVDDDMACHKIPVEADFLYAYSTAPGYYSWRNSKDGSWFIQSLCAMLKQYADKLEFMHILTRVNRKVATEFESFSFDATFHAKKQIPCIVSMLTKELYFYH

Melanocortin receptor 4 = Melanocortin receptor 4 (Homo sapiens, UniProt P32245); type: functional, cell-based;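 also: Cell-based assay with luminescence read-out, confirmatory dose-response testing for agonist activity of biased ligands at MC4R; human U2OS cells with tagged receptor and beta-arrestin; potency of agonists that increase receptor coupling to beta-arrestin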
Aurora kinase A = Aurora kinase A (Homo sapiens, UniProt O14965); type: functional;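 also: value from the Navigating the Kinome kinase panel profiling, panel entry STK6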
Aurora kinase B = Aurora kinase B (Homo sapiens, UniProt Q96GD4); type: functional
[12] = target: Vascular endothelial growth factor receptor 2 (Homo sapiens, UniProt P35968); type: functional
Chain of Vascular endothelial growth factor receptor 2 (P35968 whole entry): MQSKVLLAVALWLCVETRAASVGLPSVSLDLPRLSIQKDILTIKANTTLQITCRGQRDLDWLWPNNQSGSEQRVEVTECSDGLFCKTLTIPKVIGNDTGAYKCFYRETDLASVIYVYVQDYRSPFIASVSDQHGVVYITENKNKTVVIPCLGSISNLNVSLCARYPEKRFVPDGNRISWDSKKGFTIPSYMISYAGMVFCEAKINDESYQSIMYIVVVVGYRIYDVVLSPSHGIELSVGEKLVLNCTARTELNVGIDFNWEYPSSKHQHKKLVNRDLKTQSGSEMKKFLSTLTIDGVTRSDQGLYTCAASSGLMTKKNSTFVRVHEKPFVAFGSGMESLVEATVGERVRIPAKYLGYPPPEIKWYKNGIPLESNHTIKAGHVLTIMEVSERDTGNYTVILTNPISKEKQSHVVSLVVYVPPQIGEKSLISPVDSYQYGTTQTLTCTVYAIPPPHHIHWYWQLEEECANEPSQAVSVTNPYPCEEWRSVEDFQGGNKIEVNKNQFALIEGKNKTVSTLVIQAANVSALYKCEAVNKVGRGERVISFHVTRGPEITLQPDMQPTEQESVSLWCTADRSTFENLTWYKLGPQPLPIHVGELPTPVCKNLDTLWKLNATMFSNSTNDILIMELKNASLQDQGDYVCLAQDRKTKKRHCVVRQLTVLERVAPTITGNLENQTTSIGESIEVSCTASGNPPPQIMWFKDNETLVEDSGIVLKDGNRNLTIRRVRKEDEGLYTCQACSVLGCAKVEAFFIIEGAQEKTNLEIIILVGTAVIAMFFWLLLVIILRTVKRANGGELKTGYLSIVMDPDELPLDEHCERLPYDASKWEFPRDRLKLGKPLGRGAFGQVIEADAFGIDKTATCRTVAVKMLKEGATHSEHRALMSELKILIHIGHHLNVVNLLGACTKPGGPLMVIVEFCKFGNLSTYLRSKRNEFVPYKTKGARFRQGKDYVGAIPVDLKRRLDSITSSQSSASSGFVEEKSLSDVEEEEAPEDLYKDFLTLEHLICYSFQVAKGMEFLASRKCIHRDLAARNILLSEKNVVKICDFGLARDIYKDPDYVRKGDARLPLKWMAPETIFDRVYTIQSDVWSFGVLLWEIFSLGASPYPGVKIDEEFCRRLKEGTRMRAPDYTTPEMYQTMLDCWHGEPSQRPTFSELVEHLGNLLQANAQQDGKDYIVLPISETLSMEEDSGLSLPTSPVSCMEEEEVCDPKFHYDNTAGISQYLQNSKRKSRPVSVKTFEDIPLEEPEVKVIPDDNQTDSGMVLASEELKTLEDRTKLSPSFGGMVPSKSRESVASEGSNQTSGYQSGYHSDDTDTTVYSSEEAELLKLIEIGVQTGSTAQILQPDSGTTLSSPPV

Chain of Aurora kinase B (Q96GD4 whole entry): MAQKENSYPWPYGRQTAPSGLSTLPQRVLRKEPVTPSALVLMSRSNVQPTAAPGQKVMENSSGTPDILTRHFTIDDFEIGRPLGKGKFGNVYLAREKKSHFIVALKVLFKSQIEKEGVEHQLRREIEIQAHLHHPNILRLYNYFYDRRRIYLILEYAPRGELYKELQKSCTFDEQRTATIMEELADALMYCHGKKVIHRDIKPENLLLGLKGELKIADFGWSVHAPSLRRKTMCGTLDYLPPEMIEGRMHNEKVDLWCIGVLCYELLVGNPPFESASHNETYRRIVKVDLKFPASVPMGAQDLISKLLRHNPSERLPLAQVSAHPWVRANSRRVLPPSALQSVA
Chain of Aurora kinase A (O14965 whole entry): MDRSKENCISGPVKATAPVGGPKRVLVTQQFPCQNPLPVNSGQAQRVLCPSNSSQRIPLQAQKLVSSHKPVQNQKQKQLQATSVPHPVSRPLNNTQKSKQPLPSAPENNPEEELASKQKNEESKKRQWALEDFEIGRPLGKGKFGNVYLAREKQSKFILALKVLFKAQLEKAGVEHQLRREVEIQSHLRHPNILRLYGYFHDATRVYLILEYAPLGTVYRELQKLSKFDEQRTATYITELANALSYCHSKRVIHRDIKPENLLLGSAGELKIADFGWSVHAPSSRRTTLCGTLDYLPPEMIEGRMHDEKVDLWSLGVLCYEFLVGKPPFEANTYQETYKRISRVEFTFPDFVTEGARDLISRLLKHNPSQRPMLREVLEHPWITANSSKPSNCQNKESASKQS
Chain of Ras and Rab interactor 1/Tyrosine-protein kinase ABL1 (P00519 whole entry): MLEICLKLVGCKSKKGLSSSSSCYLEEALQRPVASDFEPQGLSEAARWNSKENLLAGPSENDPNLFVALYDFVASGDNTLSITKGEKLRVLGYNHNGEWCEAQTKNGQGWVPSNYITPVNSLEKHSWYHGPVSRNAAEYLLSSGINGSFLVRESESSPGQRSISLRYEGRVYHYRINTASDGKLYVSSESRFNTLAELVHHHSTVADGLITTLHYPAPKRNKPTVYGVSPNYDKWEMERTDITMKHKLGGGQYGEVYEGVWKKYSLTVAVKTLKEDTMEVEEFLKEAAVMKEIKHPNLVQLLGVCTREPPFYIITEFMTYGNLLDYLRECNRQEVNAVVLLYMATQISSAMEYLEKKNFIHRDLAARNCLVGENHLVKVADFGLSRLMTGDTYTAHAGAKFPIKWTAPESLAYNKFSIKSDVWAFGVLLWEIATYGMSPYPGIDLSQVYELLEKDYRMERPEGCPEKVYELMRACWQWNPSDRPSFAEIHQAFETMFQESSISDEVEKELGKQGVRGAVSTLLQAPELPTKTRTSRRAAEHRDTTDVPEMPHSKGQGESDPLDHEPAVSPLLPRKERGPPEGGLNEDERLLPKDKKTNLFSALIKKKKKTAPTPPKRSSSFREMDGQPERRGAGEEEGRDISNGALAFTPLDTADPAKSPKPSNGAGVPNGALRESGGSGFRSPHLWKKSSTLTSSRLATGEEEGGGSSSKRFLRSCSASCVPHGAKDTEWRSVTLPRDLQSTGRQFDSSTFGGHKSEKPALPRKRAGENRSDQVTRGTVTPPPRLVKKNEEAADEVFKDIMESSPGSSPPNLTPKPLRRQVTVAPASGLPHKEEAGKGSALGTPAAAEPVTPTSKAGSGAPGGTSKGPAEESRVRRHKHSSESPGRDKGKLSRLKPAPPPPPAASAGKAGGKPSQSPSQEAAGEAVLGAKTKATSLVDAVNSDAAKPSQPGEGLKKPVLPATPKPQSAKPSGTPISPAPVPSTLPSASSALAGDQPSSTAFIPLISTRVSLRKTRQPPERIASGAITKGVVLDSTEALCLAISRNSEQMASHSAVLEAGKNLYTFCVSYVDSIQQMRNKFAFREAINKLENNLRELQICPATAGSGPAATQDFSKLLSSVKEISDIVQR
Chain of Ras and Rab interactor 1/Tyrosine-protein kinase ABL1 (Q13671 whole entry): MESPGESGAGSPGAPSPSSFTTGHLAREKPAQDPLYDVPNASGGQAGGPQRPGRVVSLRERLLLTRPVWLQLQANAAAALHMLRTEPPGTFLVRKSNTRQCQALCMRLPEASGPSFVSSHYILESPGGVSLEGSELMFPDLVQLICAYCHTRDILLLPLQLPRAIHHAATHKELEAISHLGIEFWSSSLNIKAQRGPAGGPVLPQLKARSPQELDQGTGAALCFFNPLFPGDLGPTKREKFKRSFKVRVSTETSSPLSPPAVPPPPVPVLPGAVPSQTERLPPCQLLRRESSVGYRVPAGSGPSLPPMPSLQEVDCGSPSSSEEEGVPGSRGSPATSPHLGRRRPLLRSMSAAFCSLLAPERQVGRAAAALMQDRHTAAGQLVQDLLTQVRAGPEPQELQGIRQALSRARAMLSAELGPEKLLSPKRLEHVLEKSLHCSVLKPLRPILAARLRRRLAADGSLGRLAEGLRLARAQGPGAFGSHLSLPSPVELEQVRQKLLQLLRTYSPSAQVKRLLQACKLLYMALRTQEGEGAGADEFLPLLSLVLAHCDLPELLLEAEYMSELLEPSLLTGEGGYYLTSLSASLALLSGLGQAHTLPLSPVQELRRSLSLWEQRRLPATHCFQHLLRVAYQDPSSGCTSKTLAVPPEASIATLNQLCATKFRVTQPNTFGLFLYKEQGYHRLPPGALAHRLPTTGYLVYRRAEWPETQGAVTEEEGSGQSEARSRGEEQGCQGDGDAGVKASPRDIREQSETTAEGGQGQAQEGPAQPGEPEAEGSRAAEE
Chain of Melanocortin receptor 4 (P32245 whole entry): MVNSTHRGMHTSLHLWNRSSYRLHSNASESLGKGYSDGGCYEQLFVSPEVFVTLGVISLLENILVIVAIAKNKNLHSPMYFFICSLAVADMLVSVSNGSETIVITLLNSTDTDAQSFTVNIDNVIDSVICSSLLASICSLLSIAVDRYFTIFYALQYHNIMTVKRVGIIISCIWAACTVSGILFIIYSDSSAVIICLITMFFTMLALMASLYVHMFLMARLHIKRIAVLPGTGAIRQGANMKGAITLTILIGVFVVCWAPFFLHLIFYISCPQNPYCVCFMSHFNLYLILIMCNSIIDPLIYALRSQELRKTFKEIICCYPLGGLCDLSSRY

With `Cc1nc2c(-c3ccc(Cl)cc3)cnn2c2c1CCC2` the EC50 [1] was 11.1 µM (active), the IC50 [2] was 15 µM (inactive) and the IC50 [3] was 4.59 µM (active). The EC50 [4] was > 120 µM (not active), the IC50 (Orexin receptor type 2 [5]) was > 88.8 µM (inactive) and the IC50 (Orexin receptor type 2 [6]) was > 50 µM (inactive). For the same compound, the EC50 (H4) was 24.5 µM (active), the IC50 [7] was > 49.8 µM (inactive) and the IC50 (CHO-K1) was > 66.3 µM (inactive).
With `COC(=O)c1ccc(COC(=O)C2CCN(S(=O)(=O)c3ccc(C)c(C)c3)CC2)o1` the IC50 [8] was 12.4 µM (inactive).
With `CCn1c2ccccc2c2cc(NC(=O)c3cccc(OC)c3)ccc21` the EC50 [1] was 56.6 µM (active), the IC50 [2] was 0.965 µM (active) and the IC50 [3] was 0.2 µM (active). The EC50 [4] was 34.8 µM (active), the IC50 (Orexin receptor type 2 [5]) was 77.6 µM (inactive) and the IC50 (Orexin receptor type 2 [6]) was > 50 µM (inactive). The EC50 (H4) was 40.1 µM (active), the IC50 [7] was > 49.8 µM (inactive) and the IC50 (CHO-K1) was > 66.2 µM (inactive).
For `COc1ccc(N2CCN(C(=O)C(=O)c3c(C)[nH]c4ccccc34)CC2)cc1`, the IC50 [9] was > 99 µM (inactive), the IC50 [10] was > 99 µM (inactive) and the IC50 [11] was > 99 µM (inactive). The IC50 (Caspase-3) was > 99 µM (inactive).
For `NC(Cc1ccc(C(F)(F)F)cc1)c1csc(NC(=O)Nc2ccccc2Cl)n1` (stereo not given), the EC50 (Melanocortin receptor 4) was > 89.2 µM (inactive).
With `Cc1ccc(-c2c(C#N)c(N)nc3cc(C)nn23)cc1` the Ki (Aurora kinase A) was 0.501 µM (active), the Ki (Aurora kinase B) was 0.1 µM (active) and the Ki [12] was 3.98 µM (active).
With `CCCCN1CCN(c2ccc(-c3nc4c(C(N)=O)cccc4[nH]3)cn2)CC1` the Ki (Aurora kinase A) was 1.26 µM (active), the Ki (Aurora kinase B) was 0.0794 µM (active) and the Ki [12] was > 5.01 µM (inactive).
